Measurements taken from patent US10087185B2 (Janssen Pharmaceutica NV, priority 2016, dated 2018).

Each molecule was assayed against TARP γ8 dependent AMPA receptor (GRIA1o-CACNG8 fusion construct) (Homo sapiens (Human), UniProt P42261+Q8WXS5) (assay: Calcium flux assay (FLIPR), inhibition of glutamate response of GluA1o-γ8 channel). Details: HEK293 cells stably expressing GRIA1o-CACNG8 fusion; calcium flux after 15 μM glutamate; negative log of the IC50 in molar.
Assay type: cell-based
Procedure, shortened: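 HEK293 clonal line stably expressing a GRIA1o-CACNG8 fusion (1:1 GluA1o:γ8), loaded with Calcium-5/6 dye plus compound in HEPES buffer pH 7.4. FLIPR calcium flux read after 15 μM glutamate; normalized to no-compound and 10 μM CP465022 controls. Four-parameter logistic fit gives IC50, reported as pIC50.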

TARP γ8 dependent AMPA receptor (GRIA1o-CACNG8 fusion construct), sequence (P42261 other isoform, or with tags, fused parts or gaps): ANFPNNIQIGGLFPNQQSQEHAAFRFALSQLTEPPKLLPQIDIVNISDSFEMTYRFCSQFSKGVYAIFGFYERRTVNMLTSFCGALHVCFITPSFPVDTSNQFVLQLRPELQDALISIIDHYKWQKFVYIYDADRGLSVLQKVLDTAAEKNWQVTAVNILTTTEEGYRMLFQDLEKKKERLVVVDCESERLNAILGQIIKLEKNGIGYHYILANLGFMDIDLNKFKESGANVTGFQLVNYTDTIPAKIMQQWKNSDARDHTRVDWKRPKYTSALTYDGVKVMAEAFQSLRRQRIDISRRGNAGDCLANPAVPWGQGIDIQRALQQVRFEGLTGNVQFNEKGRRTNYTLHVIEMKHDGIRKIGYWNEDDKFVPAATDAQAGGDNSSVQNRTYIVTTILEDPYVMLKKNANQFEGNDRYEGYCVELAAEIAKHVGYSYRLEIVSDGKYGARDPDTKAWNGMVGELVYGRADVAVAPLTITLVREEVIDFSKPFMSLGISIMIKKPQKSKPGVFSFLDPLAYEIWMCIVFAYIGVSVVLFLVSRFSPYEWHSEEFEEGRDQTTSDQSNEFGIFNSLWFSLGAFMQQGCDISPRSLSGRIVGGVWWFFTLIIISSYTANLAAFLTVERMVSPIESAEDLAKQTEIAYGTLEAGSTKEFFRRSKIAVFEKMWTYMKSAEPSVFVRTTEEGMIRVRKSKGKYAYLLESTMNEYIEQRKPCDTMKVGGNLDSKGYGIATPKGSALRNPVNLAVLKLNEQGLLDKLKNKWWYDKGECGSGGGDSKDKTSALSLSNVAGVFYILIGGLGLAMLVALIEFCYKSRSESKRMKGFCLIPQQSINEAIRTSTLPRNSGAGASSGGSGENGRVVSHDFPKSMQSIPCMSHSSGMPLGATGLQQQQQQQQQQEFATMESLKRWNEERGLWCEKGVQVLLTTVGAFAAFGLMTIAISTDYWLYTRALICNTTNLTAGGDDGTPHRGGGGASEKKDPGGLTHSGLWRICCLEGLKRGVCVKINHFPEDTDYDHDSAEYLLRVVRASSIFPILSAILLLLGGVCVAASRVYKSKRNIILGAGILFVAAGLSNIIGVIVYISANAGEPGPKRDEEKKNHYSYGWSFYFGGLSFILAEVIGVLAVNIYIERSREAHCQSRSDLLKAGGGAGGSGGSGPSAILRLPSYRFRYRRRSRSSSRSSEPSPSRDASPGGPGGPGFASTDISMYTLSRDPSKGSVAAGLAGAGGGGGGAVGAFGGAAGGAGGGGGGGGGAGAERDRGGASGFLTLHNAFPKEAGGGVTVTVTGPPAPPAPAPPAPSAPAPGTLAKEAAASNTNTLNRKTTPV

Compound | IC50 [nM] | pIC50
CCc1cc(C(F)F)c(-c2cc(Cl)c3[nH]ncc3c2)n2nc(C(F)(F)F)nc12 [Example 91, 5-(7-Chloro-1H-indazol-5-yl)-6-(difluoromethyl)-8-ethyl-2-(trifluoromethyl)-[1,2,4]triazolo[1,5-a]pyridine] | 0.501 | –
CCc1cc(C(F)F)c(-c2cc(C)c3[nH]ncc3c2)n2nc(C(F)(F)F)nc12 [Example 92, 6-(Difluoromethyl)-8-ethyl-5-(7-methyl-1H-indazol-5-yl)-2-(trifluoromethyl)-[1,2,4]triazolo[1,5-a]pyridine] | 1 | –
CCc1cc(C(F)F)c(-c2cc(Cl)c3[nH]ncc3c2)n2nc(C3CC3)nc12 [Example 93, 5-(7-Chloro-1H-indazol-5-yl)-2-cyclopropyl-6-(difluoromethyl)-8-ethyl-[1,2,4]triazolo[1,5-a]pyridine] | 0.158 | –
CCc1cc(C(F)F)c(-c2cc(C)c3[nH]ncc3c2)n2nc(C3CC3)nc12 [Example 94, 2-Cyclopropyl-6-(difluoromethyl)-8-ethyl-5-(7-methyl-1H-indazol-5-yl)-[1,2,4]triazolo[1,5-a]pyridine] | 0.398 | –
CCCc1nc2c(C)cc(C(F)F)c(-c3cc(C)c4[nH]ncc4c3)n2n1 [Example 95, 6-(Difluoromethyl)-8-methyl-5-(7-methyl-1H-indazol-5-yl)-2-propyl-[1,2,4]triazolo[1,5-a]pyridine] | 3.16 | –
CCCc1nc2c(Cl)cc(C(F)(F)F)c(-c3cc(Cl)c4[nH]ncc4c3)n2n1 [Example 96, 8-Chloro-5-(7-chloro-1H-indazol-5-yl)-2-propyl-6-(trifluoromethyl)-[1,2,4]triazolo[1,5-a]pyridine] | 0.398 | –
CCCc1nc2c(Cl)cc(C(F)(F)F)c(-c3cc(Cl)c4c(c3)CC(=O)N4)n2n1 [Example 97, 7-Chloro-5-(8-chloro-2-propyl-6-(trifluoromethyl)-[1,2,4]triazolo[1,5-a]pyridin-5-yl)indolin-2-one] | 0.501 | –
CCCc1nc2c(Cl)cc(C(F)(F)F)c(-c3cc(C)c4c(c3)CC(=O)N4)n2n1 [Example 98, 5-(8-Chloro-2-propyl-6-(trifluoromethyl)-[1,2,4]triazolo[1,5-a]pyridin-5-yl)-7-methylindolin-2-one] | 0.794 | –
Cc1cc(-c2c(C(F)(F)F)cc(C)c3nc(C4CC4)nn23)cc2c1NC(=O)C2 [Example 99, 5-(2-Cyclopropyl-8-methyl-6-(trifluoromethyl)-[1,2,4]triazolo[1,5-a]pyridin-5-yl)-7-methylindolin-2-one] | 0.251 | –
CCc1nc2c(C)cc(C(F)(F)F)c(-c3cc(Cl)c4c(c3)CC(=O)N4)n2n1 [Example 100, 7-Chloro-5-(2-ethyl-8-methyl-6-(trifluoromethyl)-[1,2,4]triazolo[1,5-a]pyridin-5-yl)indolin-2-one] | 0.631 | –
CCc1nc2c(C)cc(C(F)(F)F)c(-c3cc(C(F)(F)F)c4[nH]ncc4c3)n2n1 [Example 101, 2-Ethyl-8-methyl-6-(trifluoromethyl)-5-(7-(trifluoromethyl)-1H-indazol-5-yl)-[1,2,4]triazolo[1,5-a]pyridine] | 0.316 | –
CCc1nc2c(C)cc(C(F)(F)F)c(-c3cc4c(c(C(F)(F)F)c3)NC(=O)C4)n2n1 [Example 102, 5-(2-Ethyl-8-methyl-6-(trifluoromethyl)-[1,2,4]triazolo[1,5-a]pyridin-5-yl)-7-(trifluoromethyl)indolin-2-one] | 1.58 | –
Cc1cc(C(F)(F)F)c(-c2cc(Cl)c3c(c2)CC(=O)N3)n2nc(C(F)(F)F)nc12 [Example 103] | 0.158 | –
CCc1cc(-c2c(C(F)(F)F)cc(C)c3nc(C(F)(F)F)nn23)cc2c1NC(=O)C2 [Example 104, 7-Ethyl-5-(8-methyl-2,6-bis(trifluoromethyl)-[1,2,4]triazolo[1,5-a]pyridin-5-yl)indolin-2-one] | 0.158 | –
Cc1cc(-c2c(C(F)(F)F)cc(C)c3nc(C(F)(F)F)nn23)cc2c1NC(=O)C2 [Example 105, 7-Methyl-5-(8-methyl-2,6-bis(trifluoromethyl)-[1,2,4]triazolo[1,5-a]pyridin-5-yl)indolin-2-one] | 0.316 | –
COc1cc(-c2c(C(F)(F)F)cc(C)c3nc(C(F)(F)F)nn23)cc2c1NC(=O)C2 [Example 106, 7-Methoxy-5-(8-methyl-2,6-bis(trifluoromethyl)-[1,2,4]triazolo[1,5-a]pyridin-5-yl)indolin-2-one] | 1.26 | –
Cc1cc(-c2c(C(F)(F)F)cc(C)c3nc(C(F)(F)F)nn23)cc2cn[nH]c12 [Example 107, 8-Methyl-5-(7-methyl-1H-indazol-5-yl)-2,6-bis(trifluoromethyl)-[1,2,4]triazolo[1,5-a]pyridine] | 0.501 | –
Cc1cc(C(F)(F)F)c(-c2cc(C#N)c3c(c2)CC(=O)N3)n2nc(C(F)(F)F)nc12 [Example 108, 5-(8-Methyl-2,6-bis(trifluoromethyl)-[1,2,4]triazolo[1,5-a]pyridin-5-yl)-2-oxoindoline-7-carbonitrile] | 3.98 | –

Compound | IC50 [nM] | pIC50
Cc1cc(C(F)F)c(-c2cc(Cl)c3[nH]ncc3c2)n2nc(C(F)(F)F)nc12 [Example 109, 5-(7-Chloro-1H-indazol-5-yl)-6-(difluoromethyl)-8-methyl-2-(trifluoromethyl)-[1,2,4]triazolo[1,5-a]pyridine] | – | 9.6
Cc1cc(C(F)F)c(-c2cc(Cl)c3c(c2)CC(=O)N3)n2nc(C(F)(F)F)nc12 [Example 110, 7-Chloro-5-(6-(difluoromethyl)-8-methyl-2-(trifluoromethyl)-[1,2,4]triazolo[1,5-a]pyridin-5-yl)indolin-2-one] | 0.794 | –
Cc1cc(-c2c(C(F)F)cc(C)c3nc(C(F)(F)F)nn23)cc2cn[nH]c12 [Example 111, 6-(Difluoromethyl)-8-methyl-5-(7-methyl-1H-indazol-5-yl)-2-(trifluoromethyl)-[1,2,4]triazolo[1,5-a]pyridine] | 0.794 | –
Cc1cc(C(F)F)c(-c2cc(Cl)c3[nH]ncc3c2)n2nc(C3CC3)nc12 [Example 112, 5-(7-Chloro-1H-indazol-5-yl)-2-cyclopropyl-6-(difluoromethyl)-8-methyl-[1,2,4]triazolo[1,5-a]pyridine] | 0.1 | –
Cc1cc(C(F)F)c(-c2cc(Cl)c3c(c2)CC(=O)N3)n2nc(C3CC3)nc12 [Example 113, 7-Chloro-5-(2-cyclopropyl-6-(difluoromethyl)-8-methyl-[1,2,4]triazolo[1,5-a]pyridin-5-yl)indolin-2-one] | 0.316 | –
Cc1cc(-c2c(C(F)F)cc(C)c3nc(C4CC4)nn23)cc2cn[nH]c12 [Example 114, 2-Cyclopropyl-6-(difluoromethyl)-8-methyl-5-(7-methyl-1H-indazol-5-yl)-[1,2,4]triazolo[1,5-a]pyridine] | 0.398 | –
CCc1nc2c(C)cc(C(F)F)c(-c3cc(Cl)c4[nH]ncc4c3)n2n1 [Example 115, 5-(7-Chloro-1H-indazol-5-yl)-6-(difluoromethyl)-2-ethyl-8-methyl-[1,2,4]triazolo[1,5-a]pyridine] | 2 | –
Cc1nc2c(C)cc(C(F)(F)F)c(-c3cc(Cl)c4[nH]ncc4c3)n2n1 [Example 116, 5-(7-Chloro-1H-indazol-5-yl)-2,8-dimethyl-6-(trifluoromethyl)-[1,2,4]triazolo[1,5-a]pyridine] | 2.51 | –
CCOc1nc2c(C)cc(C(F)(F)F)c(-c3cc(Cl)c4[nH]ncc4c3)n2n1 [Example 117, 5-(7-Chloro-1H-indazol-5-yl)-2-ethoxy-8-methyl-6-(trifluoromethyl)-[1,2,4]triazolo[1,5-a]pyridine] | 2.51 | –
FC(F)(F)c1ccc2cc(C3CC3)nn2c1-c1cc(Cl)c2[nH]ncc2c1 [Example 118, 7-Chloro-5-(2-cyclopropyl-6-(trifluoromethyl)pyrazolo[1,5-a]pyridin-7-yl)-1H-indazole] | – | 10.2
Cc1cc(-c2c(C(F)F)ccc3cc(C(F)(F)F)nn23)cc2c1NC(=O)C2 [Example 119, 5-[6-(Difluoromethyl)-2-(trifluoromethyl)pyrazolo[1,5-a]pyridin-7-yl]-7-methyl-indolin-2-one] | 0.0501 | –
FC(F)c1ccc2cc(C(F)(F)F)nn2c1-c1cc(Cl)c2[nH]ncc2c1 [Example 120, 7-(7-Chloro-1H-indazol-5-yl)-6-(difluoromethyl)-2-(trifluoromethyl)pyrazolo[1,5-a]pyridine] | 0.0158 | –
Cc1cc(-c2c(C(F)F)ccc3cc(C(F)(F)F)nn23)cc2cn[nH]c12 [Example 121, 6-(Difluoromethyl)-7-(7-methyl-1H-indazol-5-yl)-2-(trifluoromethyl)pyrazolo[1,5-a]pyridine] | 0.0251 | –
Cc1cc(-c2c(C(F)F)cc(C)c3cc(C(F)(F)F)nn23)cc2c1NC(=O)C2 [Example 122, 5-[6-(Difluoromethyl)-4-methyl-2-(trifluoromethyl)pyrazolo[1,5-a]pyridin-7-yl]-7-methyl-indolin-2-one] | 0.0501 | –
Cc1cc(-c2c(C(F)F)cc(C)c3cc(C(F)(F)F)nn23)cc2cn[nH]c12 [Example 123, 6-(Difluoromethyl)-4-methyl-7-(7-methyl-1H-indazol-5-yl)-2-(trifluoromethyl)pyrazolo[1,5-a]pyridine] | 0.126 | –
Cc1cc(C(F)F)c(-c2cc(Cl)c3c(c2)CC(=O)N3)n2nc(C(F)(F)F)cc12 [Example 124, 7-Chloro-5-[6-(difluoromethyl)-4-methyl-2-(trifluoromethyl)pyrazolo[1,5-a]pyridin-7-yl]indolin-2-one] | 0.251 | –
Cc1cc(C(F)F)c(-c2cc(Cl)c3[nH]ncc3c2)n2nc(C(F)(F)F)cc12 [Example 125, 7-(7-Chloro-1H-indazol-5-yl)-6-(difluoromethyl)-4-methyl-2-(trifluoromethyl)pyrazolo[1,5-a]pyridine] | 0.1 | –
